Data: patent US20190105367A1, “ANTIMICROBIAL 4-OXOQUINOLIZINES” (Emergent Product Development Gaithersburg Inc., priority 2011, published 2019)
Values after ≈ are worked out from the molar mass of the structure shown. Read-outs that look alike come from different tables or passages of the source.

Columns and labels:
[1] = system: A. baumannii NCTC 13301; assay: MIC without and with sub-inhibitory polymyxin B (Example 4); format: cell-based, Acinetobacter baumannii
[2] = system: A. baumannii ATCC 19606; assay: as above; format: cell-based, Acinetobacter baumannii; details: for MIC without PB/MIC + PB: A. baumannii ATCC 19606; for MIC: Acinetobacter baumannii
[3] = system: A. baumannii A14; assay: as above; format: cell-based, Acinetobacter baumannii; details: 2nd experiment
[4] = system: A. baumannii A401; assay: as above; format: cell-based, Acinetobacter baumannii; details: for MIC: Acinetobacter baumannii
[5] = system: strains of A. baumannii and one strain of Acinetobacter sp.; assay: MIC with sub-inhibitory concentrations (0.25x MIC) of polymyxin B, panel of Acinetobacter strains (Example 4); format: cell-based; details: 2nd experiment; 0.06 μg/ml polymyxin B; all strains except the ATCC strain
[6] = system: A. baumannii A489; assay: Preliminary MBC without and with sub-inhibitory polymyxin B (Example 4); format: cell-based, Acinetobacter baumannii; details: Acinetobacter baumannii, preliminary MBC
[7] = system: A. baumannii A390; assay: MIC without and with sub-inhibitory polymyxin B (Example 4); format: cell-based, Acinetobacter baumannii; details: +0.06 μg/ml PB, 2nd experiment
[8] = system: A. baumannii A387; assay: Preliminary MBC without and with sub-inhibitory polymyxin B (Example 4); format: cell-based, Acinetobacter baumannii; details: Acinetobacter baumannii
[9] = system: A. baumannii A489; assay: MIC without and with sub-inhibitory polymyxin B (Example 4); format: cell-based, Acinetobacter baumannii; details: for MIC without PB/MIC + PB: A. baumannii A489; for MIC: Acinetobacter baumannii
[10] = system: A. baumannii A473; assay: as above; format: cell-based, Acinetobacter baumannii; details: +0.06 μg/ml PB, 2nd experiment
[11] = system: A. baumannii A401; assay: Preliminary MBC without and with sub-inhibitory polymyxin B (Example 4); format: cell-based, Acinetobacter baumannii; details: Acinetobacter baumannii
[12] = system: A. baumannii A329; assay: MIC without and with sub-inhibitory polymyxin B (Example 4); format: cell-based, Acinetobacter baumannii; details: +0.06 μg/ml PB, 2nd experiment
[13] = system: A. baumannii A473; assay: Preliminary MBC without and with sub-inhibitory polymyxin B (Example 4); format: cell-based, Acinetobacter baumannii; details: Acinetobacter baumannii, A473, A. baumannii A473, +0.06 μg/ml PB, 2nd experiment, read-out: MBC
How it was run: (§1)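 Incubation 18-20 h, 37° C. MBC = lowest conc. with ~90% fewer colonies than positive control (single/no colonies).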

[14] = system: A. baumannii A14; assay: as above; format: cell-based, Acinetobacter baumannii; details: 2nd experiment
How it was run: as §1

[15] = system: A. baumannii A390; assay: as above; format: cell-based, Acinetobacter baumannii; details: Acinetobacter baumannii, A390, A. baumannii A390, +0.06 μg/ml PB, 2nd experiment, read-out: MBC
How it was run: as §1

[16] = system: A. baumannii NCTC 13301; assay: as above; format: cell-based, Acinetobacter baumannii; details: Acinetobacter baumannii
How it was run: as §1

[17] = system: A. baumannii A329; assay: as above; format: cell-based, Acinetobacter baumannii; details: Acinetobacter baumannii, A329, A. baumannii A329, +0.06 μg/ml PB, 2nd experiment, read-out: MBC
[18] = system: A. baumannii NCTC 13301; assay: MIC without and with sub-inhibitory polymyxin B (Example 4); format: cell-based, Acinetobacter baumannii; details: +[…] PB, 2nd experiment
[19] = system: A. baumannii A472; assay: Preliminary MBC without and with sub-inhibitory polymyxin B (Example 4); format: cell-based, Acinetobacter baumannii; details: Acinetobacter baumannii, preliminary MBC
[20] = system: A. baumannii J2; assay: MIC without and with sub-inhibitory polymyxin B (Example 4); format: cell-based, Acinetobacter baumannii
[21] = system: A. baumannii A472; assay: as above; format: cell-based, Acinetobacter baumannii; details: for MIC: Acinetobacter baumannii
[22] = system: A. baumannii ATCC 19606; assay: Preliminary MBC without and with sub-inhibitory polymyxin B (Example 4); format: cell-based, Acinetobacter baumannii; details: Acinetobacter baumannii
[23] = system: A. baumannii A387; assay: MIC without and with sub-inhibitory polymyxin B (Example 4); format: cell-based, Acinetobacter baumannii; details: for MIC without PB/MIC + PB: A. baumannii A387; for MIC: Acinetobacter baumannii
[24] = system: Acinetobacter sp. (H064200250); assay: as above; format: cell-based; details: for MIC: Acinetobacter
[25] = ratio, PB 0.06 μg/ml, 1st experiment
[26] = A. baumannii A14, +0.06 μg/ml PB

SMILES: Cc1c(-c2ccc(N)cc2)ccn2c(=O)c(C(=O)O)cc(C3CC3)c12 [Compound 8, 8-(4-amino-phenyl)-1-cyclopropyl-9-methyl-4-oxo-quinolizine-3-carboxylic acid]
- MIC without PB/MIC + PB ([1]; A. baumannii NCTC 13301, ratio, PB […], 1st experiment): 64
- MIC ([1]; Acinetobacter baumannii, NCTC13301, read-out: MIC +[…] PB): 0.5 µg/mL (≈ 1.5 µM)
- MIC without PB/MIC + PB ([2]; +0.06 μg/ml PB, 2nd experiment): ≥8
- MIC without PB/MIC + PB [2, 25]: ≥32
- MIC ([2]; ATCC19606, A. baumannii ATCC 19606, +0.06 μg/ml PB, 2nd experiment, read-out: MIC): ≤ 0.03 µg/mL
- MIC ([2]; ATCC19606, read-out: MIC +0.06 μg/ml PB, A. baumannii ATCC 19606, +0.06 μg/ml polymyxin B, 1st experiment): ≤ 0.03 µg/mL
- MIC [3, 26]: 0.5 µg/mL (≈ 1.5 µM)
- MIC without PB/MIC + PB [3, 26]: 16
- MIC ([3]; Acinetobacter baumannii, A14, A. baumannii A14, without PB, read-out: MIC): 8 µg/mL (≈ 23.9 µM)
- MIC without PB/MIC + PB ([4]; A baumannii A 401, ratio, PB 0.06 μg/ml, 1st experiment): ≥1024
- MIC ([4]; A401, A baumannii A 401, +0.06 μg/ml PB, 2nd experiment, read-out: MIC): 0.25 µg/mL (≈ 0.748 µM)
- MIC ([4]; A401, read-out: MIC +0.06 μg/ml PB, A baumannii A 401, +0.06 μg/ml polymyxin B, 1st experiment): ≤ 0.03 µg/mL
- MIC range with PB (0.25x MIC) Oct. 14, 2008 n = 11 [5]: ≤0.03 to 8 µg/mL
- MBC ([6]; A489, A. baumannii A489, +[…] PB, 2nd experiment, read-out: MBC): ≤ 0.03 µg/mL
- MBC ([6]; A489, read-out: MBC +[…] PB, A. baumannii A489, +[…] polymyxin B, 1st experiment): ≤ 0.03 µg/mL
- MIC without PB/MIC + PB ([7]; A. baumannii A390): 32
- MIC ([7]; Acinetobacter baumannii, A390, A. baumannii A390, read-out: MIC): 0.5 µg/mL (≈ 1.5 µM)
- MBC ([8]; A387, A. baumannii A387, +0.06 μg/ml PB, 2nd experiment, read-out: MBC): 0.25 µg/mL (≈ 0.748 µM)
- MBC ([8]; A387, read-out: MBC +0.06 μg/ml PB, A. baumannii A387, +0.06 μg/ml polymyxin B, 1st experiment): ≤ 0.03 µg/mL
- MIC without PB/MIC + PB ([9]; +[…] PB, 2nd experiment): ≥256
- MIC without PB/MIC + PB ([9]; ratio, PB […], 1st experiment): ≥64
- MIC ([9]; A489, A. baumannii A489, +[…] PB, 2nd experiment, read-out: MIC): ≤ 0.03 µg/mL
- MIC ([9]; A489, read-out: MIC +[…] PB, A. baumannii A489, +[…] polymyxin B, 1st experiment): ≤ 0.03 µg/mL
- MIC without PB/MIC + PB ([10]; A. baumannii A473): 8
- MIC ([10]; Acinetobacter baumannii, A473, A. baumannii A473, read-out: MIC): 0.5 µg/mL (≈ 1.5 µM)
- MBC ([11]; A401, A baumannii A 401, +0.06 μg/ml PB, 2nd experiment, read-out: MBC): 0.25 µg/mL (≈ 0.748 µM)
- MBC ([11]; A401, read-out: MBC +0.06 μg/ml PB, A baumannii A 401, +0.06 μg/ml polymyxin B, 1st experiment): ≤ 0.03 µg/mL
- MIC without PB/MIC + PB ([12]; A. baumannii A329): 4
- MIC ([12]; Acinetobacter baumannii, A329, A. baumannii A329, read-out: MIC): 2 µg/mL (≈ 5.98 µM)
- MBC [13]: 0.5 µg/mL (≈ 1.5 µM)
- MBC [14, 26]: 0.5 µg/mL (≈ 1.5 µM)
- MBC ([14]; Acinetobacter baumannii, A14, A. baumannii A14, without PB, read-out: MBC): 16 µg/mL (≈ 47.9 µM)
- MBC [15]: 0.5 µg/mL (≈ 1.5 µM)
- MBC ([16]; NCTC13301, A. baumannii NCTC 13301, +[…] PB, preliminary MBC, 2nd experiment, read-out: MBC): 0.5 µg/mL (≈ 1.5 µM)
- MBC ([16]; NCTC13301, read-out: MBC +[…] PB): 1 µg/mL (≈ 2.99 µM)
- MBC [17]: 2 µg/mL (≈ 5.98 µM)
- MIC without PB/MIC + PB ([18]; A. baumannii NCTC 13301): 32
- MIC ([18]; Acinetobacter baumannii, NCTC13301, A. baumannii NCTC 13301, read-out: MIC): 0.5 µg/mL (≈ 1.5 µM)
- MBC ([19]; A472, A. baumannii A472, +[…] PB, 2nd experiment, read-out: MBC): 0.06 µg/mL (≈ 0.179 µM)
- MBC ([19]; A472, read-out: MBC +[…] PB, A. baumannii A472, +[…] polymyxin B, 1st experiment): ≤ 0.03 µg/mL
- MIC without PB/MIC + PB ([20]; A. baumannii J2, +[…] PB, 2nd experiment): ≥128
- MIC +[…] PB ([20]; A. baumannii J2, +[…] polymyxin B, 1st experiment): 0.125 µg/mL (≈ 0.374 µM)
- MIC without PB/MIC + PB ([20]; A. baumannii J2, ratio, PB […], 1st experiment): 64
- MIC ([20]; Acinetobacter baumannii, J2, A. baumannii J2, +[…] PB, 2nd experiment, read-out: MIC): ≤ 0.03 µg/mL
- MIC without PB/MIC + PB ([21]; A. baumannii A472, ratio, PB […], 1st experiment): ≥128
- MIC ([21]; A472, A. baumannii A472, +[…] PB, 2nd experiment, read-out: MIC): 0.06 µg/mL (≈ 0.179 µM)
- MIC ([21]; A472, read-out: MIC +[…] PB, A. baumannii A472, +[…] polymyxin B, 1st experiment): ≤ 0.03 µg/mL
- MBC ([22]; ATCC19606, A. baumannii ATCC 19606, +0.06 μg/ml PB, 2nd experiment, read-out: MBC): ≤ 0.03 µg/mL
- MBC ([22]; ATCC19606, read-out: MBC +0.06 μg/ml PB, A. baumannii ATCC 19606, +0.06 μg/ml polymyxin B, 1st experiment): ≤ 0.03 µg/mL
- MIC without PB/MIC + PB ([23]; +0.06 μg/ml PB, 2nd experiment): 2
- MIC without PB/MIC + PB [23, 25]: ≥64
- MIC ([23]; A387, A. baumannii A387, +0.06 μg/ml PB, 2nd experiment, read-out: MIC): 0.5 µg/mL (≈ 1.5 µM)
- MIC ([23]; A387, read-out: MIC +0.06 μg/ml PB, A. baumannii A387, +0.06 μg/ml polymyxin B, 1st experiment): ≤ 0.03 µg/mL
- MIC without PB/MIC + PB ([24]; Acinetobacter spp. H064200250 (OXA51), +[…] PB, 2nd experiment): 32
- MIC without PB/MIC + PB ([24]; Acinetobacter spp. H064200250, ratio, PB […], 1st experiment): 32
- MIC ([24]; Acinetobacter spp. H064200250 (OXA51), +[…] PB, 2nd experiment, read-out: MIC): 0.125 µg/mL (≈ 0.374 µM)
- MIC ([24]; read-out: MIC +[…] PB, Acinetobacter spp. H064200250, +[…] polymyxin B, 1st experiment): 0.06 µg/mL (≈ 0.179 µM)
